How the values were obtained:
adBNST neurons [1] = test: Calcium imaging (OGB-1) of persistent activity in adBNST slice after electrical stimulation; assay type: cell-based, mice; settings: 100 μM APV, then 10 μM NBQX added; N (all cells) 277 for APV, 279 for NBQX + APV
adBNST neurons [2] = test: Ex vivo slice voltage-clamp recording of light-evoked EPSCs and IPSCs (ChR2 in BLA afferents); assay type: cell-based, mice; settings: bath application 100 μM picrotoxin; n=4
Procedure: For slice physiology in combination with optogenetics, 3-4 week old male wild-type mice were injected with AAV-CaMKIIa::ChR2-eYFP into the BLA, or male Drd1a-Cre mice were injected with AAV-EFla::DIO-ChR2(H134R)-eYFP into the ovBNST. After a month, acute 300 μm coronal slices were obtained by transcardially perfusing ice-cold sucrose cutting solution (in mM; 11 D-glucose, 234 sucrose, 2.5 KCl, 1.25 NaH2PO4, 10 MgSO4, 0.5 CaCl2, 26 NaHCO3) and slicing in the same solution using a vibratome (VT1000S; Leica, Buffalo Grove, Ill., USA). Slices were recovered in oxygenated artificial cerebrospinal fluid (aCSF; in mM, 123 NaCl, 26 NaHCO3, 3 KCl, 1.25 NaH2PO4, 1 MgCl2, 2 CaCl2, and 11 glucose) at 32° C. for one hour. […]
For the blue light delivery, light was emitted from a 300 W broad-wavelength xenon lamp source (DG-4, Sutter Instruments, Novato, Calif., USA), band-pass filtered at 470±20 nm (Semrock; Rochester, N.Y., USA), passed through additional neutral density filters (ThorLabs; Newton, N.J., USA) and coupled to the fluorescence port of the microscope. […]
Voltage-clamp recordings were made at both −70 mV to isolate EPSCs, and at 0 mV to isolate IPSCs. […] Currents were filtered at 2 kHz, digitized at 50 kHz, and recorded to disk using pClamp10 software (Molecular Devices). […]

Compound | N (number of cells activated after stimulation) (adBNST neurons [1]) | light-evoked IPSCs (adBNST neurons [2])
NC(CCCP(=O)(O)O)C(=O)O (centres unmarked) [APV, 2-amino-5-phosphonopentanoic acid] | 61 | –
picrotoxin | – | blocked
